Data: ChEMBL document CHEMBL4834466 (J Med Chem, 2021)

Tests used:
[1] = Metabolic stability in rat Hepatocyte assessed as intrinsic clearance at 0.5 uM incubated for 60 mins by LC-MS/MS analysis; assay type: ADME, tissue-based; conditions: hepatocytes, 1 h
[2] = Lipophilicity, logD of compound at pH 7.4; assay type: physicochemical; conditions: buffer
[3] = Clearance in Wistar Han rat at 1 mg/kg, iv measured upto 7 hrs by LC-MS/MS analysis; assay type: ADME, organism-based; conditions: in vivo
[4] = Volume of distribution at steady state in Wistar Han rat at 1 mg/kg, iv measured upto 7 hrs by LC-MS/MS analysis; assay type: ADME, organism-based; conditions: in vivo, read-out: Vdss
[5] = Metabolic stability in dog Hepatocyte assessed as intrinsic clearance at 0.5 uM incubated for 60 mins by LC-MS/MS analysis; assay type: ADME, tissue-based, Canis lupus familiaris; conditions: hepatocytes, 1 h
[6] = LBF in Wistar Han rat at 1 mg/kg, iv measured upto 7 hrs by LC-MS/MS analysis; assay type: ADME, organism-based; conditions: in vivo
[7] = Unbound clearance in Wistar Han rat at 1 mg/kg, iv measured upto 7 hrs by LC-MS/MS analysis; assay type: ADME, organism-based; conditions: in vivo
[8] = Metabolic stability in human Hepatocyte assessed as intrinsic clearance at 0.5 uM incubated for 120 mins by LC-MS/MS analysis; assay type: ADME, tissue-based; conditions: hepatocytes, 2 h
[9] = Oral bioavailability in Wistar Han rat at 3 mg/kg measured upto 24 hrs by LC-MS/MS analysis; assay type: ADME, organism-based; conditions: in vivo
[10] = Half life in Wistar Han rat at 1 mg/kg, iv measured upto 7 hrs by LC-MS/MS analysis; assay type: ADME, organism-based; conditions: in vivo
[11] = Volume of distribution at steady state in Beagle dog at 0.5 mg/kg, iv measured upto 24 hrs by LC-MS/MS analysis; assay type: ADME, organism-based, Canis lupus familiaris; conditions: in vivo, read-out: Vdss
[12] = Half life in Beagle dog at 0.5 mg/kg, iv measured upto 24 hrs by LC-MS/MS analysis; assay type: ADME, organism-based, Canis lupus familiaris; conditions: in vivo
[13] = Unbound clearance in Beagle dog at 0.5 mg/kg, iv measured upto 24 hrs by LC-MS/MS analysis; assay type: ADME, organism-based, Canis lupus familiaris; conditions: in vivo
[14] = Clearance in Beagle dog at 0.5 mg/kg, iv measured upto 24 hrs by LC-MS/MS analysis; assay type: ADME, organism-based, Canis lupus familiaris; conditions: in vivo
[15] = Oral bioavailability in Beagle dog at 0.5 mg/kg measured upto 24 hrs by LC-MS/MS analysis; assay type: ADME, organism-based, Canis lupus familiaris; conditions: in vivo
[16] = LBF in Beagle dog at 0.5 mg/kg, iv measured upto 24 hrs by LC-MS/MS analysis; assay type: ADME, organism-based, Canis lupus familiaris; conditions: in vivo

Row | Compound | CLH [1] [mL/min/g] | logD [2] | also measured
1 | CNC(=O)c1cc(C(=O)NC)c2c(c1)[C@H](c1ccccc1)[C@@H](CF)O2 | 3 | 3.3 | –
2 | CNC(=O)c1cc(C(=O)NCCC[C@H]2OC[C@H](N)CO2)cc2c1O[C@H](CF)[C@H]2c1ccccc1 | 1.1 | 2.9 | –
3 | CNC(=O)c1cc(C(=O)NC2CC2)cc2c1O[C@H](CF)[C@H]2c1ccccc1 | 3.2 | 3.9 | –
4 | CNC(=O)c1cc(C(N)=O)cc2c1O[C@H](CF)[C@H]2c1ccccc1 | – | 2.9 | –
5 | CNC(=O)c1cc(C(=O)N[C@H]2C[C@@H]2C)cc2c1OC[C@@]2(C)c1ccccc1 | – | 4.7 | –
6 | CNC(=O)c1cc(C(=O)NC)c2c(c1)[C@](C)(c1ccccc1)CO2 | – | 3.4 | –
7 | CNC(=O)c1cc(C(=O)N[C@H]2[C@@H]3COC[C@@H]32)cc2c1OC[C@@]2(C)c1ccccc1 | 1.2 | 3.7 | clearance [3]: 61 mL/min/kg; Vd [4]: 1.6 L/kg; CLH [5]: < 0.7 mL/min/g; LBF [6]: 77%; CL free [7]: 274 mL/min/kg; CLH [8]: < 0.5 mL/min/g; bioavailability [9]: 54%; half-life [10]: 18 min
8 | CNC(=O)c1cc(C(=O)N[C@H]2C[C@@H]2C)cc2c1OC[C@@]2(CO)c1ccccc1 | 2.7 | 3.3 | clearance [3]: 60 mL/min/kg; Vd [4]: 1.2 L/kg; CLH [5]: 1 mL/min/g; LBF [6]: 60%; CL free [7]: 340 mL/min/kg; CLH [8]: < 0.5 mL/min/g; bioavailability [9]: 38%; half-life [10]: 18 min
9 | CNC(=O)c1cc(C(=O)N[C@H]2[C@@H]3C[C@H](O)C[C@@H]32)cc2c1OC[C@@]2(C)c1ccccc1 | 6.4 | 3.7 | –
10 | CNC(=O)c1cc(C(=O)N[C@H]2CC[C@H](O)CC2)cc2c1OC[C@@]2(C)c1ccccc1 | – | 3.3 | –
11 | CNC(=O)c1cc(C(=O)N[C@H]2[C@@H]3COC[C@@H]32)cc2c1OC[C@H]2C1CCOCC1 | – | 2.1 | –
12 | CNC(=O)c1cc(C(=O)NC2CC2)cc2c1OC[C@H]2c1ccc(F)cc1 | 6.1 | 3.8 | –
13 | CNC(=O)c1cc(C(=O)NCCc2cnn(C)c2)cc2c1OC[C@H]2c1cccc2[nH]ccc12 | 16.3 | 3.2 | –
14 | CNC(=O)c1cc(C(=O)N[C@@H]2C[C@H]2C)cc2c1O[C@H](CF)[C@H]2c1ccccc1 | – | 4.5 | –
15 | CNC(=O)c1cc(C(=O)N[C@H]2[C@@H]3C[C@@H](O)C[C@@H]32)cc2c1OC[C@@]2(C)c1ccccc1 | 1 | 3.3 | clearance [3]: 55 mL/min/kg; Vd [4]: 2.3 L/kg; CLH [5]: < 0.7 mL/min/g; Vd [11]: 0.9 L/kg; half-life [12]: 174 min; LBF [6]: 69%; CL free [7]: 260 mL/min/kg; CL free [13]: 24 mL/min/kg; CLH [8]: < 0.5 mL/min/g; clearance [14]: 5 mL/min/kg; bioavailability [9]: 32%; bioavailability [15]: 64%; LBF [16]: 8%; half-life [10]: 42 min
16 | CNC(=O)c1cc(C(=O)NC2CC2)cc2c1OC[C@H]2c1cccc2[nH]ccc12 | 4.6 | 3.5 | –
17 | CNC(=O)c1cc(C(=O)NC2CC2)cc2c1OC[C@H]2c1cccc(F)c1 | 10 | 3.7 | –
18 | CNC(=O)c1cc(C(=O)NC2CC2)cc2c1OC[C@@]2(C)c1ccccc1 | 6.7 | 4 | –
19 | CNC(=O)c1cc(C(=O)N[C@H]2[C@@H]3COC[C@@H]32)cc2c1OC[C@H]2c1cccc2[nH]ccc12 | 3.6 | 3.1 | –
20 | CNC(=O)c1cc(C(=O)N[C@H]2[C@@H]3COC[C@@H]32)cc2c1OC[C@@]2(CO)c1ccccc1 | 1.4 | 2.4 | –
21 | CC[C@@]1(c2ccccc2)COc2c(C(=O)NC)cc(C(=O)N[C@H]3[C@@H]4COC[C@@H]43)cc21 | – | 4.2 | –
22 | CNC(=O)c1cc(C(=O)NC2CC2)cc2c1OC[C@H]2c1cccc(OC)c1 (racemic) | – | 3.8 | –
23 | CNC(=O)c1cc(C(=O)N[C@H]2[C@@H]3COC[C@@H]32)cc2c1OC[C@H]2c1ccccn1 (racemic) | – | 1.6 | –
24 | CNC(=O)c1cc(C(=O)NC2CC2)cn(Cc2ccccc2)c1=O [GSK620] | 1 | 3.1 | –

Second part, led by results:

Row | CLH [1] [mL/min/g] | logD [2] | Compound | also measured
25 | 14.8 | 3.6 | CNC(=O)c1cc(C(=O)N[C@H]2[C@@H]3COC[C@@H]32)cc2c1OC[C@H]2c1ccc(F)cc1 | –
26 | 2 | 3.6 | CNC(=O)c1cc(C(=O)NC2CC2)cc2c1OC[C@H]2c1ccccc1 | clearance [3]: 34 mL/min/kg; Vd [4]: 0.6 L/kg; CLH [5]: < 0.7 mL/min/g; LBF [6]: 43%; CL free [7]: 723 mL/min/kg; CLH [8]: < 0.5 mL/min/g; bioavailability [9]: 47%; half-life [10]: 18 min
27 | 3.3 | 2.9 | CNC(=O)c1cc(C(=O)N[C@H]2[C@@H]3C[C@@H](O)C[C@@H]32)cc2c1OC[C@H]2c1ccccc1 | –
28 | 20.1 | 3.5 | CNC(=O)c1cc(C(=O)Nc2cnn(C)c2)cc2c1OC[C@H]2c1ccccc1 | –
29 | – | 3.2 | CNC(=O)c1cc(C(=O)NC)c2c(c1)[C@H](c1ccccc1)CO2 | –
30 | – | 2.6 | CNC(=O)c1cc(C(=O)NCCC[C@H]2OC[C@H](N)CO2)cc2c1OC[C@H]2c1ccccc1 | –
31 | – | 3.2 | CNC(=O)c1cc(C(=O)NCCc2cnn(C)c2)cc2c1OC[C@H]2c1ccccc1 | –
32 | 30.9 | 4 | CNC(=O)c1cc(C(=O)N[C@H]2[C@@H]3COC[C@@H]32)cc2c1OC[C@H]2c1ccccc1C | –
33 | – | 2.7 | CNC(=O)c1cc(C(N)=O)cc2c1OC[C@H]2c1ccccc1 | –
34 | 8.6 | 3.3 | CNC(=O)c1cc(C(=O)N[C@H]2[C@@H]3COC[C@@H]32)cc2c1OC[C@H]2c1ccccc1 | –
35 | 6.8 | 3.4 | CCC(=O)N1C[C@@H]2[C@H](C1)[C@H]2NC(=O)c1cc(C(=O)NC)c2c(c1)[C@H](c1ccccc1)CO2 | –
36 | – | 4.5 | CNC(=O)c1cc(C(=O)N[C@H]2C[C@@H]2C)cc2c1OC[C@H]2c1ccccc1 | –
37 | – | 1.4 | CNC(=O)c1cc(C(=O)N[C@H]2[C@@H]3COC[C@@H]32)cc2c1OC[C@H]2c1cccnc1 (racemic) | –
38 | – | 1.3 | CNC(=O)c1cc(C(=O)N[C@H]2[C@@H]3COC[C@@H]32)cc2c1OC[C@H]2c1ccncc1 (racemic) | –
39 | – | 3.2 | CNC(=O)c1cc(C(=O)N[C@H]2[C@@H]3COC[C@@H]32)cc2c1OC[C@H]2c1cccc(OC)c1 (racemic) | –
40 | 1.8 | 3.6 | CNC(=O)c1cc(C(=O)N[C@H]2[C@@H]3COC[C@@H]32)cc2c1O[C@H](CF)[C@H]2c1ccccc1 [GSK973] | –
